For data set [1], the system named is Vesicular Stomatitis Virus (VSV). Description: microbe, parasite or virus in culture. The data set is classed as cell-based. To be noted: 36 h.
Data set [2] concerns the target T1, adenosine deaminase (Bos taurus, UniProt P56658).
T1 sequence (P56658 1-363): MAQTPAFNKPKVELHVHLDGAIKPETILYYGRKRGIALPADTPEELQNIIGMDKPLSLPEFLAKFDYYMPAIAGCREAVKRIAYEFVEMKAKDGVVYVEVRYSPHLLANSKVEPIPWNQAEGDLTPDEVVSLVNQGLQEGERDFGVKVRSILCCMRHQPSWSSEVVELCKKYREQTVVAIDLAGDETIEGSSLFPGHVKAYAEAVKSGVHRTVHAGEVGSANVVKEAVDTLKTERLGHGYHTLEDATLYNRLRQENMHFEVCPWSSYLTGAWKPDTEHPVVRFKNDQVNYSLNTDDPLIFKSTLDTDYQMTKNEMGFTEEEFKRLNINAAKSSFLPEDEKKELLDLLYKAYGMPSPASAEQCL
In words: Adenosine deaminase resistance (remaining compound measured by HPLC). The settings on record: for Percent remainder 0 minute / Percent remainder 30 minutes: 5 mM compound in 0.05 M Tris-HCl buffer (pH 7.2), adenosine deaminase (calf intestine), 25°C.

Data set [3] has as its system Vero cells. Description: Cytotoxicity in Vero cells (minimum cytotoxicity concentration).
Data set [4] has as its system parainfulenza virus. Description: Antiviral activity against parainfluenza virus in Vero cells (minimum virus growth inhibitory concentration). In kind it is cell-based.

We go through four compounds from patent publication EP0477700A1, “6'-C-alkyl- or alkynyl-neplanocin A, and its preparation process and use” (priority 1990, dated 1992).

In brackets after ≈: the same amount, converted by molar mass. Read-outs that look alike come from different tables or passages of the source.

In data set [1], `C#CC(O)C1=C[C@@H](n2cnc3c(N)ncnc32)[C@H](O)[C@@H]1O` (stereo partly shown) [6'-C-Ethynylneplanocin A, 6'-C-ethynylneplanocin A] showed an MIC of 0.1 µg/mL (≈ 0.348 µM). Besides, in data set [2], the “Percent remainder 0 minute” value amounted to 100% and the “Percent remainder 30 minutes” value is 96%.

For the compound `Nc1ncnc2c1ncn2[C@@H]1C=C(CO)[C@@H](O)[C@H]1O` [Neplanocin A], in data set [1], the MIC came to 3.9 µg/mL (≈ 14.8 µM). Moreover, the MCC entry in data set [3] is “≧40 µg/mℓ”. For the same compound, in data set [2], the “Percent remainder 0 minute” value is reported as 100% and the “Percent remainder 30 minutes” value came out at 0%. In data set [2] (summary of the adenosine deaminase resistance test (conditions of Table 3)), this compound registered an inactivated of 100%. Also, in data set [4], the MIC was determined as 0.1 µg/mL (≈ 0.38 µM).

For `CCC(O)C1=C[C@@H](n2cnc3c(N)ncnc32)[C@H](O)[C@@H]1O` (stereo partly shown) [6'-C-Ethylneplanocin A, 6'-C-ethylneplanocin A], in data set [2], the “Percent remainder 0 minute” value was 100% and the “Percent remainder 30 minutes” value is 94%.

For the compound `CC(O)C1=C[C@@H](n2cnc3c(N)ncnc32)[C@H](O)[C@@H]1O` (stereo partly shown) [6'-C-Methylneplanocin A, 6'-C-methylneplanocin A], the MIC in data set [1] was 0.1 µg/mL (≈ 0.361 µM). In data set [3], the MCC result is “≧400 µg/mℓ”. Further, in data set [2], the “Percent remainder 0 minute” value is 100% and the “Percent remainder 30 minutes” value is recorded as 92%. Besides, the MIC in data set [4] (minimum virus growth inhibitory concentration, parainfulenza virus, Vero cells, read-out: MIC) is 0.1 µg/mL (≈ 0.361 µM).
